From patent publication US8357659B2, “Method of treating pain or itching with APETx2 peptide toxin” (priority 2008, dated 2013)

How the values were obtained:
[1] = system: ASIC type current of cutaneous neurons of the spinal ganglia; assay: Whole cell patch clamp of native ASIC currents in cutaneous neurons of the spinal ganglia; type: cell-based, rat; settings: pH 6.6; FIG. 1C
Experimental: The neurons of the dorsal root ganglion (spinal ganglia or DRG) innervating the skin were labelled by subcutaneous injections of 5×1 μl of Dil fluorescent dye (5% DMSO, Molecular Probes) in the dorsal side of the rats' hind paws. The dye was injected two weeks before the rats were sacrificed in order to prepare a primary culture of dorsal root ganglion.
The lumbar dorsal root ganglia L3-L6 of Wistar rats (8-11 weeks) were dissected bilaterally and separated enzymatically with 0.1% collagenase. The cells were subsequently plated on 35 mm Petri dishes covered with collagen and cultured at 37° C. (95% air/5% CO2) in DMEM medium containing 5% of foetal calf serum. The electrophysiological experiments were performed 1 to 8 days after seeding.
The whole cell configuration of the patch clamp method was used ([ref. 48]) in order to measure the membrane currents (imposed voltage) or the membrane potentials (imposed current). The recordings were performed at ambient temperature using an RK-400 amplifier (Bio-Logic Science Instruments) with a 3 kHz low-pass filter (Krohn-Hite). The data were sampled at 10 kHz, digitised using a Digidata 1322A A-D/D-A converter (Axon Instruments) and recorded on a hard disk using pClamp software (version 9.2.0.11, Axon Instruments). The recording probes (1-4 MOhms) contained (in mM): 135 KCl, 2.5 Na2-ATP, 2 MgCl2, 2.1 CaCl2, 5 EGTA, 10 HEPES (pH 7.25 with KOH). Various different buffers and drugs of interest were added to the transfected cells considered individually using an internally developed microinfusion system controlled by microelectrovalves (Sirai, Italy) allowing rapid changes of solution. The control bath solution contained (in mM): 145 NaCl, 5 KCl, 2 MgCl2, 2 CaCl2, 10 HEPES (pH 7.4 with NaOH). The MES medium was used instead of the HEPES medium in order to buffer the solution at a pH ranging from 6 to 5, and the ASIC currents were induced by rapid changes of a control solution at pH 7.4 to an acid test solution using the microinfusion system. For the experiments conducted on the DRG neurons, glucose (10 mM) was added to the control bath solution. Hypertonic conditions were obtained by adding mannitol or sucrose to the external bath solutions, as indicated in the text.

[2] = target: T1, heteromer ASIC2a+3 (Rattus norvegicus, UniProt O35240+Q62962); settings: cited from earlier work
T1 sequence (Q62962 1-512): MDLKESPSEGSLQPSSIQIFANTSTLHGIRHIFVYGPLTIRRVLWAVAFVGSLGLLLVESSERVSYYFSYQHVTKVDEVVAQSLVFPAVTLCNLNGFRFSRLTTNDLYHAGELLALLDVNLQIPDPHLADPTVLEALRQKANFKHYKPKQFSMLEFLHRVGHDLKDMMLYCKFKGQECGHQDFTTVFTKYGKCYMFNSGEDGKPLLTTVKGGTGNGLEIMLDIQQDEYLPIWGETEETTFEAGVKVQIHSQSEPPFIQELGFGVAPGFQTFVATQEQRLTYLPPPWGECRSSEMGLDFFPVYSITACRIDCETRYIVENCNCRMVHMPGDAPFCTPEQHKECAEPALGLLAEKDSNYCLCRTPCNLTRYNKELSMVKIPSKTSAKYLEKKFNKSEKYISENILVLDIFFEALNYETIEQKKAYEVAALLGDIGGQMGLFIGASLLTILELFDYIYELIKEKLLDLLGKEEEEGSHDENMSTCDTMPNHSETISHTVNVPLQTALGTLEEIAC
T1 sequence (O35240 1-533): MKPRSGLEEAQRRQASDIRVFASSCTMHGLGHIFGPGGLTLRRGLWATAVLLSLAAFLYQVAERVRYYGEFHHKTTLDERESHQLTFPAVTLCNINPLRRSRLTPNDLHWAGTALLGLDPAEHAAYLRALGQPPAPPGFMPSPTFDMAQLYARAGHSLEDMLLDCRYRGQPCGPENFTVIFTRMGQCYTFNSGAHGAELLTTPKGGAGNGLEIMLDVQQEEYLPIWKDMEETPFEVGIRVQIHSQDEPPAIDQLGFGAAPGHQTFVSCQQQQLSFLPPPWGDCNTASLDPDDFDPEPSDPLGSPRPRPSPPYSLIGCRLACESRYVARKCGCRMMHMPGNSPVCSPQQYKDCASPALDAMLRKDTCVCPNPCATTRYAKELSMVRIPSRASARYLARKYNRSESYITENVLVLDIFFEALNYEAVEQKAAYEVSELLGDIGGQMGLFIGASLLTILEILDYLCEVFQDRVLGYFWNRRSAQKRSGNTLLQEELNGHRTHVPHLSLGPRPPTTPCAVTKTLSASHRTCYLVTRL

## peptide of 42 amino acids (SEQ ID NO: 3), three disulphide bonds, from sea anemone Anthopleura elegantissima; blocks ASIC3 [APETx2]
[1]
  sensitivity of the native ASIC currents to the toxin: partial sensitivity
[2]
  effect on the heteromer ASIC2a+3: does not have any effect
